Data published in patent US20260159536A1, “AKR1C3-ACTIVATED DNA ALKYLATING AGENT, AND MEDICAL APPLICATION THEREOF” (ASCENTAWITS PHARMACEUTICALS, LTD., priority 2021, published 2026).
Read-outs that look alike come from different tables or passages of the source.

Tests used:
[1] = system: HuPrime model LI6664 human liver cancer; experiment: In vivo pharmacodynamics, liver cancer LI6664 PDX model; set-up: species or system BALB/c nude mice; settings: for relative tumor inhibition rate TGI (%): QWx3; for Relative tumor volume (x ± S) / Tumor volume (x ± S): mean ± standard error; for Tumor volume (x ± S): in mm³ (unit assumed)
Experimental: Experiment Instruction: BALB/c nude mice were subcutaneously inoculated with HuPrime® model LI6664 tumor blocks to establish a subcutaneous transplantation tumor model of human liver cancer. […] Among them, 7.5% anhydrous ethanol+7.5% polyoxyethylene (35) castor oil+85% glucose injection D5W (pH 7.4) vehicle control group was administered by tail vein once a week for 3 consecutive weeks; test drug AST-3424 0.3 mg/kg and 1 mg/kg groups were administered by tail vein injection once a day for 5 consecutive days, followed by 2 days off, followed by 2 weeks off, and then continuously administered for 5 consecutive days; the test drug AST-3424 1.25 mg/kg group was administered by tail vein injection once a week for 2 consecutive weeks, followed by one week off, and then continuously administered for 2 consecutive weeks, Compound A 0.5 mg/kg, 1.5 mg/kg, and 4.5 mg/kg groups were administered by tail vein injection once a week for three consecutive weeks, followed by 1 week off, and then administered for three consecutive weeks. […] The efficacy was evaluated according to the relative tumor inhibition rate TGI (%), and the safety was evaluated according to the change in body weight and the death of the animals.

[2] = Liver microsome stability, rat; assay type: in vitro ADME; settings: for Percentage remaining after 30 minutes: Rat liver microsomes
Experimental: 1) Two individual experiments were performed.
All experiments were performed in duplicate.

H460 cancer cells = experiment: H460 proliferation in the presence or absence of AKR1C3 inhibitor AST-3021 (Alamar Blue); assay type: cell-based, human; settings: for IC50: Homo sapiens, NCI-H460, H460, 2 hours exposure
Experimental: (§1) The tested compound was then added. The compound was dissolved in 100% DMSO at 200 times of the desired final test concentration. When the medicament was added, the compound was further diluted to 4 times of the desired final test concentration by using the complete medium. 50 μL of aliquots of the compound with specific concentration were added to the microwells containing 150 μL of medium, and then the final medicament concentration was obtained. […] The medicament was then washed. […] After the incubation was finished, the Alamar Blue was used to analyze and quantify the living cells.

[3] = system: HuPrime model GA6201 human gastric cancer; settings: for Relative tumor volume (x ± S) / T/C (%) / TGI (%) / Tumor volume (x ± S): Day 38
Experimental: The test was divided into groups of the test drug Isocyclophosphamide 60 mg/kg group, the test drug AST-3424 5 mg/kg group, the test drug A compound 2.5 mg/kg and 5 mg/kg groups, and normal saline (pH 7.0-7.6) vehicle control group, a total of 5 groups, with 5 mice per group.
In the above dosing regimen, Isocyclophosphamide was designed based on the best dosing regimen with maximum safe dosage as recited in the document (Jessica D. Sun, Qian Liu, Dharmendra Ahluwalia, Damien J. Ferraro, Yan Wang, Don Jung, Mark D. Matteucci, and Charles P. Hart. Comparison of hypoxia-activated prodrug evofosfamide (TH-302) and ifosfamide in preclinical non-small cell lung cancer models [J]. Cancer Biology & Therapy, 2016, 17(4): 371-380).

NCI-H2110 = experiment: AKR1C3-dependent cytotoxicity, NSCLC cell line NCI-H2110; assay type: cell-based
Experimental: as §1

Structure (SMILES): O=[N+]([O-])c1ccc(C(OP(=O)(N2CC2)N2CC2)C(F)(F)F)cc1Oc1ccc(-c2ccc(F)cc2)c(F)c1 (racemic) [Compound A]
- relative tumor inhibition rate TGI (%) ([1]; 0.5 mg/kg i.v. QWx3, 1 week off, Day 28): 34.07%
- relative tumor inhibition rate TGI (%) ([1]; 1.5 mg/kg i.v. QWx3, 1 week off, Day 28): 66.57%
- relative tumor inhibition rate TGI (%) ([1]; 4.5 mg/kg i.v. QWx3, 1 week off, Day 28): 77.05%
- T/C (%) ([1]; Compound A 0.5 mg/kg, Day 28): 65.93%
- Relative tumor volume (x ± S) ([1]; Compound A 0.5 mg/kg, Day 28): 8.51 ± 2.07
- Tumor volume (x ± S) ([1]; Compound A 0.5 mg/kg, Day 28): 920.46 ± 215.96
- T/C (%) ([1]; Compound A 1.5 mg/kg, Day 28): 33.43%
- Relative tumor volume (x ± S) ([1]; Compound A 1.5 mg/kg, Day 28): 4.31 ± 0.54
- Tumor volume (x ± S) ([1]; Compound A 1.5 mg/kg, Day 28): 466.31 ± 77.63
- T/C (%) ([1]; Compound A 4.5 mg/kg, Day 28): 22.95%
- Relative tumor volume (x ± S) ([1]; Compound A 4.5 mg/kg, Day 28): 2.96 ± 0.27
- Tumor volume (x ± S) ([1]; Compound A 4.5 mg/kg, Day 28): 320.72 ± 40.03
- Size of tumor volume ([1]; Group6, Compound A 0.5 mg/kg, Day 0): 108.44 mm^3
- Size of tumor volume ([1]; Group6, Compound A 0.5 mg/kg, Day 4): 201.76 mm^3
- Size of tumor volume ([1]; Group6, Compound A 0.5 mg/kg, Day 7): 277.38 mm^3
- Size of tumor volume ([1]; Group6, Compound A 0.5 mg/kg, Day 11): 301.39 mm^3
- Size of tumor volume ([1]; Group6, Compound A 0.5 mg/kg, Day 14): 347.30 mm^3
- Size of tumor volume ([1]; Group6, Compound A 0.5 mg/kg, Day 18): 434.18 mm^3
- Size of tumor volume ([1]; Group6, Compound A 0.5 mg/kg, Day 21): 518.23 mm^3
- Size of tumor volume ([1]; Group6, Compound A 0.5 mg/kg, Day 25): 746.19 mm^3
- Size of tumor volume ([1]; Group6, Compound A 0.5 mg/kg, Day 28): 920.46 mm^3
- Size of tumor volume ([1]; Group6, Compound A 0.5 mg/kg, Day 32): 1036.44 mm^3
- Size of tumor volume ([1]; Group6, Compound A 0.5 mg/kg, Day 35): 1258.05 mm^3
- Size of tumor volume ([1]; Group6, Compound A 0.5 mg/kg, Day 39): 1426.66 mm^3
- Size of tumor volume ([1]; Group6, Compound A 0.5 mg/kg, Day 42): 1661.81 mm^3
- Size of tumor volume ([1]; Group6, Compound A 0.5 mg/kg, Day 46): 2037.97 mm^3
- Size of tumor volume ([1]; Group6, Compound A 0.5 mg/kg, Day 49): 1746.71 mm^3
- Size of tumor volume ([1]; Group7, Compound A 1.5 mg/kg, Day 0): 108.25 mm^3
- Size of tumor volume ([1]; Group7, Compound A 1.5 mg/kg, Day 4): 127.56 mm^3
- Size of tumor volume ([1]; Group7, Compound A 1.5 mg/kg, Day 7): 152.00 mm^3
- Size of tumor volume ([1]; Group7, Compound A 1.5 mg/kg, Day 11): 161.35 mm^3
- Size of tumor volume ([1]; Group7, Compound A 1.5 mg/kg, Day 14): 206.44 mm^3
- Size of tumor volume ([1]; Group7, Compound A 1.5 mg/kg, Day 18): 225.71 mm^3
- Size of tumor volume ([1]; Group7, Compound A 1.5 mg/kg, Day 21): 287.02 mm^3
- Size of tumor volume ([1]; Group7, Compound A 1.5 mg/kg, Day 25): 398.93 mm^3
- Size of tumor volume ([1]; Group7, Compound A 1.5 mg/kg, Day 28): 466.31 mm^3
- Size of tumor volume ([1]; Group7, Compound A 1.5 mg/kg, Day 32): 543.94 mm^3
- Size of tumor volume ([1]; Group7, Compound A 1.5 mg/kg, Day 35): 643.84 mm^3
- Size of tumor volume ([1]; Group7, Compound A 1.5 mg/kg, Day 39): 805.84 mm^3
- Size of tumor volume ([1]; Group7, Compound A 1.5 mg/kg, Day 42): 1060.20 mm^3
- Size of tumor volume ([1]; Group7, Compound A 1.5 mg/kg, Day 46): 1179.82 mm^3
- Size of tumor volume ([1]; Group7, Compound A 1.5 mg/kg, Day 49): 1407.10 mm^3
- Size of tumor volume ([1]; Group8, Compound A 4.5 mg/kg, Day 0): 108.26 mm^3
- Size of tumor volume ([1]; Group8, Compound A 4.5 mg/kg, Day 4): 125.30 mm^3
- Size of tumor volume ([1]; Group8, Compound A 4.5 mg/kg, Day 7): 142.58 mm^3
- Size of tumor volume ([1]; Group8, Compound A 4.5 mg/kg, Day 11): 150.82 mm^3
- Size of tumor volume ([1]; Group8, Compound A 4.5 mg/kg, Day 14): 176.69 mm^3
- Size of tumor volume ([1]; Group8, Compound A 4.5 mg/kg, Day 18): 180.29 mm^3
- Size of tumor volume ([1]; Group8, Compound A 4.5 mg/kg, Day 21): 201.42 mm^3
- Size of tumor volume ([1]; Group8, Compound A 4.5 mg/kg, Day 25): 282.76 mm^3
- Size of tumor volume ([1]; Group8, Compound A 4.5 mg/kg, Day 28): 320.72 mm^3
- Size of tumor volume ([1]; Group8, Compound A 4.5 mg/kg, Day 32): 339.73 mm^3
- Size of tumor volume ([1]; Group8, Compound A 4.5 mg/kg, Day 35): 360.45 mm^3
- Size of tumor volume ([1]; Group8, Compound A 4.5 mg/kg, Day 39): 391.38 mm^3
- Size of tumor volume ([1]; Group8, Compound A 4.5 mg/kg, Day 42): 417.79 mm^3
- Size of tumor volume ([1]; Group8, Compound A 4.5 mg/kg, Day 46): 451.01 mm^3
- Size of tumor volume ([1]; Group8, Compound A 4.5 mg/kg, Day 49): 538.20 mm^3
- weight loss ([1]; treatment period, tested doses): no weight loss
- Percentage remaining after 30 minutes ([2]; with the addition of NADPH): 92.10%
- Percentage remaining after 30 minutes ([2]; without the addition of NADPH): 114.62%
- stability in liver microsomes ([2]; rat): relatively unstable
- IC50 (H460 cancer cells; AST-3021 3 micromolar, read-out: IC50 With the addition of AST-3021): 2140 nM
- IC50 (H460 cancer cells; no AKR1C3 inhibitor, read-out: IC50 Without the addition of AST-3021): 5.82 nM
- Fold (H460 cancer cells; IC50 with AST-3021 over IC50 without): 367.13
- relative tumor inhibition rate (TGI) ([3]; 2.5 mg/kg and 5 mg/kg i.v. QWx2): more than 96%
- Relative tumor volume (x ± S) ([3]; 2.5 mg/kg i.v. QWx2): 0.29 ± 0.08
- T/C (%) ([3]; 2.5 mg/kg i.v. QWx2): 3.15%
- TGI (%) ([3]; 2.5 mg/kg i.v. QWx2): 96.85%
- Tumor volume (x ± S) ([3]; 2.5 mg/kg i.v. QWx2): 28.69 ± 8.2
- Tumor volume ([3]; 2.5 mg/kg i.v., 0 day): 94.61 mm^3
- Tumor volume ([3]; 2.5 mg/kg i.v., 3 days): 120.19 mm^3
- Tumor volume ([3]; 2.5 mg/kg i.v., 7 days): 118.33 mm^3
- Tumor volume ([3]; 2.5 mg/kg i.v., 10 days): 118.65 mm^3
- Tumor volume ([3]; 2.5 mg/kg i.v., 14 days): 96.08 mm^3
- Tumor volume ([3]; 2.5 mg/kg i.v., 17 days): 76.14 mm^3
- Tumor volume ([3]; 2.5 mg/kg i.v., 21 days): 71.72 mm^3
- Tumor volume ([3]; 2.5 mg/kg i.v., 24 days): 57.94 mm^3
- Tumor volume ([3]; 2.5 mg/kg i.v., 28 days): 45.51 mm^3
- Tumor volume ([3]; 2.5 mg/kg i.v., 31 days): 43.44 mm^3
- Tumor volume ([3]; 2.5 mg/kg i.v., 35 days): 32.04 mm^3
- Tumor volume ([3]; 2.5 mg/kg i.v., 38 days): 28.69 mm^3
- Tumor volume ([3]; 2.5 mg/kg i.v., 42 days): 23.49 mm^3
- Tumor volume ([3]; 2.5 mg/kg i.v., 45 days): 25.00 mm^3
- Tumor volume ([3]; 2.5 mg/kg i.v., 49 days): 17.72 mm^3
- Relative tumor volume (x ± S) ([3]; Compound A 5 mg/kg i.v. QWx2): 0.19 ± 0.08
- T/C (%) ([3]; Compound A 5 mg/kg i.v. QWx2): 2.04%
- TGI (%) ([3]; Compound A 5 mg/kg i.v. QWx2): 97.96%
- Tumor volume (x ± S) ([3]; Compound A 5 mg/kg i.v. QWx2): 19.97 ± 10.18
- Tumor volume ([3]; Compound A 5 mg/kg i.v., 0 day): 94.36 mm^3
- Tumor volume ([3]; Compound A 5 mg/kg i.v., 3 days): 118.42 mm^3
- Tumor volume ([3]; Compound A 5 mg/kg i.v., 7 days): 101.91 mm^3
- Tumor volume ([3]; Compound A 5 mg/kg i.v., 10 days): 97.17 mm^3
- Tumor volume ([3]; Compound A 5 mg/kg i.v., 14 days): 74.20 mm^3
- Tumor volume ([3]; Compound A 5 mg/kg i.v., 17 days): 59.77 mm^3
- Tumor volume ([3]; Compound A 5 mg/kg i.v., 21 days): 46.21 mm^3
- Tumor volume ([3]; Compound A 5 mg/kg i.v., 24 days): 44.03 mm^3
- Tumor volume ([3]; Compound A 5 mg/kg i.v., 28 days): 38.50 mm^3
- Tumor volume ([3]; Compound A 5 mg/kg i.v., 31 days): 35.92 mm^3
- Tumor volume ([3]; Compound A 5 mg/kg i.v., 35 days): 22.70 mm^3
- Tumor volume ([3]; Compound A 5 mg/kg i.v., 38 days): 19.97 mm^3
- Tumor volume ([3]; Compound A 5 mg/kg i.v., 42 days): 5.05 mm^3
- Tumor volume ([3]; Compound A 5 mg/kg i.v., 45 days): 11.14 mm^3
- Tumor volume ([3]; Compound A 5 mg/kg i.v., 49 days): 9.96 mm^3
- body weight change / toxic effects ([3]; GA6201 model, tested doses): no effect on the body weights
- IC50 (NCI-H2110): 67.8 nM
